Measurements reported in patent US11279733B2, “Peptide antibiotics” (priority 2017, dated 2022).
≈ marks a conversion by molar mass, not a printed value. Where two headings read alike, the source gives them in different places. Starred links: 1 amine or outer side, 2 acyl side, 3 side chain; linkers in the order of their positions; H or OH if unused. Positions of bridges follow the written chain, without caps; N, C: chain ends. Non-standard residues stand in square brackets, D forms with d. Residues, ends and D or L forms follow the SMILES beside them. *: point of attachment. Decanoyl(3R-OH) = CCCCCCC[C@@H](O)CC(=O)*; Phe(4-NH2) = Nc1ccc(C[C@H](N)C(=O)O)cc1; azaLeu = CC(C)CN(N[*:1])C(=O)[*:2]; hPhe = N[C@@H](CCc1ccccc1)C(=O)O; dDab = NCC[C@@H](N)C(=O)O; Dab = NCC[C@H](N)C(=O)O

Tests used:
[1] = system: K. pneumoniae ATCC BAA-2146, NDM-1 pos; settings: ATCC BAA-2146
Description: (§1) Bacteria were either obtained from American Type Culture Collection (ATCC; Manassas, Va., USA) or independent academic clinical isolate collections, as listed in Table 18 below. Bacteria were cultured in Nutrient broth (NB; Bacto Laboratories, catalogue No. 234000) or Mueller Hinton broth (MHB; Bacto Laboratories, catalogue No. 211443) at 37° C. overnight with shaking (˜180 RPM). A sample of each culture was then diluted 50-fold in fresh MHB and incubated at 37° C. for 2-3 h with shaking (˜180 RPM). Compound stock solutions were prepared as 0.64 mg/mL or 2.56 mg/mL in water. The compounds, at twice the final desired concentration, were serially diluted 2-fold across the wells of 96-well plates (Polystyrene, Corning, catalogue No. 3370). Mid-log phase bacterial cultures (after 2-3 h incubation) were diluted to a final concentration of 1×10^6 colony forming units (CFU)/mL, and 50 μL was added to each well giving a final cell density of 5×10^5 and a compound concentration range of 32 μg/mL to 0.015 μg/mL (128-0.06 μg/mL against P. aeruginosa PA9704).

[2] = system: K. pneumoniae GN_106, PmxR; settings: GN 106, PmxR
Description: as §1

A. baumannii ATCC 19606 = settings: ATCC 19606
Description: as §1

[3] = system: S. aureus ATCC 25923, MSSA; settings: ATCC 25923
Description: as §1

P. aeruginosa ATCC 27853 = settings: ATCC 27853
Description: as §1

E. coli ATCC 25922 = settings: ATCC 25922
Description: as §1

K. pneumoniae ATCC 13883 = settings: ATCC 13883
Description: as §1

A. baumannii GN_093 PmxR = settings: GN 093 PmxR
Description: as §1

[4] = system: K. pneumoniae ATCC 700603, MDR; settings: ATCC 700603
Description: as §1

[5] = system: P. aeruginosa GN_105, PmxR; settings: GN 105, PmxR
Description: as §1

[6] = system: K. pneumoniae GN_102 PmxR; settings: GN 102 PmxR
Description: as §1

[7] = system: P. aeruginosa GN_043, PmxR
Description: as §1

SMILES | MIC K. pneumoniae ATCC BAA-2146, NDM-1 pos [1] [µg/mL] | MIC K. pneumoniae GN_106, PmxR [2] [µg/mL] | MIC A. baumannii ATCC 19606 (A. baumannii ATCC 19606) [µg/mL] | MIC S. aureus ATCC 25923, MSSA [3] [µg/mL] | MIC P. aeruginosa ATCC 27853 (P. aeruginosa ATCC 27853) [µg/mL] | MIC E. coli ATCC 25922 (E. coli ATCC 25922) [µg/mL] | MIC K. pneumoniae ATCC 13883 (K. pneumoniae ATCC 13883) [µg/mL] | MIC A. baumannii GN_093 PmxR (A. baumannii GN_093 PmxR) [µg/mL] | MIC K. pneumoniae ATCC 700603, MDR [4] [µg/mL] | MIC P. aeruginosa GN_105, PmxR [5] [µg/mL] | MIC K. pneumoniae GN_102 PmxR [6] [µg/mL] | MIC P. aeruginosa GN_043, PmxR ([7]; polymyxin-resistant) [µg/mL] | also measured
CCCCCCC[C@@H](O)CC(=O)N[C@H](CCN)C(=O)N[C@H]1CCNC(=O)[C@H](CC(C)C)NC(=O)[C@H](CCN)NC(=O)[C@H](Cc2ccc(N)cc2)NC(=O)[C@H](CC(C)C)NC(=O)[C@@H](Cc2ccccc2)NC(=O)[C@H](CCN)NC1=O [compound 8642, 3(R)OH-nC9CO-D-Dab-cyc[L-Dab-L-DAB-D-Phe-L-Leu-L-4NH2Phe-L-Dab-L-Leu]] ({Decanoyl(3R-OH)}-[dDab][Dab][Dab][dF]L[Phe(4-NH2)][Dab]L; lactam 2-C) | – | – | – | – | – | – | – | – | – | – | – | – | MIC, K. pneumoniae ATCC BAA-2146, NDM-1 pos [1]: 4 µg/mL (≈ 3.62 µM); MIC, K. pneumoniae Cl 138-16347-20362, PmxR [2]: 4 µg/mL (≈ 3.62 µM); MIC, A. baumannii ATCC 19606 (A. baumannii ATCC 19606): 8 µg/mL (≈ 7.23 µM); MIC, S. Aureus ATCC 25923, MSSA [3]: 8 µg/mL (≈ 7.23 µM); MIC, P. aeruginosa ATCC 27853 (P. aeruginosa ATCC 27853): 8 µg/mL (≈ 7.23 µM); MIC, E. coli ATCC 25922 (E. coli ATCC 25922): 4 µg/mL (≈ 3.62 µM); MIC, K. pneumoniae ATCC 13883 (K. pneumoniae ATCC 13883): 4 µg/mL (≈ 3.62 µM); MIC, A. baumannii Cl Ptyela 10073 4512:2, PmxR (A. baumannii GN_093 PmxR): 16 µg/mL (≈ 14.5 µM); MIC, K. pneumoniae ATCC 700603, MDR [4]: 4 µg/mL (≈ 3.62 µM); MIC, P. aeruginosa PA9704, PmxR [5]: 8 µg/mL (≈ 7.23 µM); MIC, K. pneumoniae Cl Koprana 10065 0661:1, PmxR [6]: 2 µg/mL (≈ 1.81 µM); MIC, P. aeruginosa FADDI-PA070, PmxR ([7]; Table 5, polymyxin-resistant): 8 µg/mL (≈ 7.23 µM)
CCCCCCC[C@@H](O)CC(=O)N[C@H](CCN)C(=O)N[C@H]1CCNC(=O)[C@H](CC(C)C)NC(=O)[C@H](Cc2ccc(N)cc2)NC(=O)[C@H](CCN)NC(=O)[C@H](CC(C)C)NC(=O)[C@@H](Cc2ccccc2)NC(=O)[C@H](CCN)NC1=O [compound 8644, 3(R)OH-nC9CO-D-Dab-cyc[L-Dab-L-DAB-D-Phe-L-Leu-L-Dab-L-4NH2Phe-L-Leu]] ({Decanoyl(3R-OH)}-[dDab][Dab][Dab][dF]L[Dab][Phe(4-NH2)]L; lactam 2-C) | 4 (≈ 3.62 µM) | 8 (≈ 7.23 µM) | 16 (≈ 14.5 µM) | 32 (≈ 28.9 µM) | 8 (≈ 7.23 µM) | 16 (≈ 14.5 µM) | 8 (≈ 7.23 µM) | >32 | 8 (≈ 7.23 µM) | 8 (≈ 7.23 µM) | 2 (≈ 1.81 µM) | 8 (≈ 7.23 µM) | –
CCCCCCC[C@@H](O)CC(=O)N[C@H](CCN)C(=O)N[C@H]1CCNC(=O)[C@H](CC(C)C)NC(=O)[C@H](CCN)NC(=O)[C@H](CCN)NC(=O)N(CC(C)C)NC(=O)[C@@H](Cc2ccccc2)NC(=O)[C@H](CCN)NC1=O [compound 8803, 3(R)OH-nC9CO-D-Dab-cyc[L-Dab-L-DAB-D-Phe-azaLeu-L-Dab-L-Dab-L-Leu]] ({Decanoyl(3R-OH)}-[dDab][Dab][Dab][dF][azaLeu][Dab][Dab]L; lactam 2-C) | 8 (≈ 7.65 µM) | – | 8 (≈ 7.65 µM) | 16 (≈ 15.3 µM) | 4 (≈ 3.83 µM) | 2 (≈ 1.91 µM) | 8 (≈ 7.65 µM) | – | 8 (≈ 7.65 µM) | – | – | – | MIC K. pneumoniae Cl 183-16357-20352, PmxR [2]: 4 µg/mL (≈ 3.83 µM); MIC A. baumannii Cl Ptyela 10073 4512:2, PmxR (A. baumannii GN_093 PmxR): 32 µg/mL (≈ 30.6 µM); MIC P. aeruginosa PA9704, PmxR [5]: 2 µg/mL (≈ 1.91 µM); MIC K. pneumoniae Cl Koprana 10065 0661:1 PmxR [6]: 2 µg/mL (≈ 1.91 µM); MIC, P. aeruginosa FADDI-PA070, PmxR ([7]; strain name as in Table 11): 1 µg/mL (≈ 0.957 µM)
CCCCCCC[C@@H](O)CC(=O)N[C@H](CCN)C(=O)N[C@H]1CCNC(=O)[C@H](Cc2c[nH]c3ccccc23)NC(=O)[C@H](CCN)NC(=O)[C@H](CCN)NC(=O)[C@H](CCc2ccccc2)NC(=O)[C@@H](Cc2ccccc2)NC(=O)[C@H](CCN)NC1=O [compound 8834, nC10-3(R)OH-D-Dab-cyc[L-Dab-L-Dab-D-Phe-L-hPhe-L-Dab-L-Dab-L-Trp]] ({Decanoyl(3R-OH)}-[dDab][Dab][Dab][dF][hPhe][Dab][Dab]W; lactam 2-C) | 8 (≈ 6.86 µM) | 8 (≈ 6.86 µM) | 8 (≈ 6.86 µM) | 4 (≈ 3.43 µM) | 4 (≈ 3.43 µM) | 8 (≈ 6.86 µM) | 4 (≈ 3.43 µM) | 8 (≈ 6.86 µM) | 8 (≈ 6.86 µM) | 32 (≈ 27.5 µM) | 4 (≈ 3.43 µM) | 4 (≈ 3.43 µM) | –
